Several values for one entry are separate records, joined by “and”; a condition that tells them apart may be missing. Identical values can stand only once. Entries after “also recorded” stand apart in the source; their conditions may differ. Like-named read-outs stand apart in the source and are kept apart here.
Assays:
SARS‐CoV‐2 [1] = assay: CPE-based high-throughput screen (CellTox Green) in Vero cells; assay type: cell-based
SARS‐CoV‐2 [2] = assay: CPE-based high-throughput screen (CellTox Green) in Calu‐3 cells; assay type: cell-based
SARS‐CoV‐2 [3] = tested on: SARS‐CoV‐2; set-up: method as in PMID 37100830; conditions: clinical trial by Klussmann and colleagues; cited from earlier work
SARS‐CoV‐2 [4] = assay: microbe, parasite or virus in culture; assay type: cell-based
SARS‐CoV‐2 [5] = assay type: cell-based; conditions: Calu‐3 pretreated 24 h before infection, MOI = 0.1, plaque assay
SARS‐CoV‐2 [6] = assay: Viral NSP12 RNA by RT‐qPCR in Calu‐3 cells; assay type: cell-based; conditions: Calu‐3, RT‐qPCR
Protocol: (A) Cell viability assessment in uninfected Calu‐3 cells treated with DMSO control, Azatadine‐Dimaleate (25 µM), Remdesivir (1 µM), or the combination (Remdesivir 1 µM + Azatadine 25 µM) for 72 h. […] (B) Release of infectious virus was quantified by plaque assay. Calu‐3 cells were pretreated with Azatadine‐Dimaleate (5 & 25 µM) or Remdesivir (1 µM) 24 h before infection with SARS‐CoV‐2 PHE (MOI = 0.1). (C) Levels of viral NSP12 RNA was measured by RT‐qPCR following treatment with Azatadine‐Dimaleate at (5 & 25 µM) or Remdesivir (1 µM) 24 h before infection with SARS‐CoV‐2 (PHE MOI = 0.1). Data bars represent mean ± SEM of n = 3 independent experiments. Statistical analysis by one‐way ANOVA, ***p ≤ 0.001 vs DMSO control. […] DMSO alone was used as a negative control. At 72 hpi viral titres were determined by plaque assay. Data points represent an average of 3 separate repeat experiments ±SEM.
For RNA extraction, cultures were incubated with 400 µL of Lysis/Binding buffer (High Pure Isolation Kit; Roche) for 5 min at room temperature. […] RNA was quantified by spectrophotometry and 1 µg was transcribed into cDNA using The High‐Capacity cDNA Reverse Transcription Kit (Applied Biosystems, Thermo Fisher Scientific) in 0.2 mL PCR reaction tubes (Eppendorf). […] Ready‐made catalogue assays for a set of primers and probes (FAM labelled) (Thermofisher) specific for human genes involved in the innate immune response to SARS‐COV‐2 such as: IFNL1 (Assay ID: Hs00601677 g1, Cat. No:433118) IFNB (Assay ID:Hs01077958_s1, Cat. No. 4331182), ISG15 (Assay ID: Hs01921425 s1, catalogue no:4331182), IFIT1 (Hs03027069_s1, Cat no. 4331182), IL6 (Hs00174131_m1, Cat no. 4331182) and CXCL8/IL8 (Bt03211906_m1, Cat no. 4331182) were selected for analyses.
(§1) When performing qPCR the Roche probe mixes for the detection of TBP (Cat. No. 05189284001) and GAPDH (Assay ID: Hs02786624_g1, Cat. No:4331182) were used as references. The LightCycler® 480 Probes Master mix was used following the manufacturer's protocol to quantify the mRNA expression levels for all genes of interest. […]

SARS‐CoV‐2 [7] = assay: microbe, parasite or virus in culture; assay type: cell-based; conditions: for Improvement in potency in combination vs alone: Calu‐3, ratio of EC50 alone to EC50 in combination; for EC50: Severe acute respiratory syndrome coronavirus 2, Calu‐3, pretreated 24 h, PHE MOI = 0.1, 72 hpi, viral titres by plaque assay, read-out: EC50, drug alone
SARS‐CoV‐2 [8] = assay type: cell-based; conditions: WD‐PBECs; for Reduction in viral titers compared to DMSO (significance): Remdesivir 1 µM, Azatadine‐Dimaleate 25 µM, or combination 0.4 µM + 10 µM, 48, 72, 96 hpi
[9] = tested on: IFNL1, IFNB, IFIT1, ISG15, IL6, CXCL8/IL8; assay: Innate immune response gene expression by RT‐qPCR in infected WD‐PBECs; assay type: cell-based, human; conditions: 96 hpi, treatment from 24 hpi
Protocol: Figure 5 Azatadine‐Dimaleate modulates innate immune responses in WD‐PBEC cultures. RNA samples were harvested at 96 hpi from each condition in duplicate from WD‐PBECs and a panel of selected innate immune genes (IFNL1, IFNB, IFIT1, ISG15, IL‐6, CXCL8/IL8), were quantified using RT‐qPCR assay. The relative ratios for each gene were calculated in reference to a house keeping gene GAPDH using light cycler 96 software 1.1. The data value plotted for each donor in each condition is an average of 2 biological duplicate Transwells and four technical replicates. Where possible, statistical significance was determined using unpaired Student t‐test between DMSO control and individual treatments (*p ≤ 0.05, **p ≤ 0.01).
For RNA extraction, cultures were incubated with 400 µL of Lysis/Binding buffer (High Pure Isolation Kit; Roche) for 5 min at room temperature. […] RNA was quantified by spectrophotometry and 1 µg was transcribed into cDNA using The High‐Capacity cDNA Reverse Transcription Kit (Applied Biosystems, Thermo Fisher Scientific) in 0.2 mL PCR reaction tubes (Eppendorf). […]
as §1

SARS‐CoV‐2 LIV strain = assay type: in vivo, K18‐hACE2 mice; conditions: for Mean weight loss: Azatadine‐Dimaleate 10 mg/kg i.p. daily, remdesivir (as GS‐441524) 25 mg/kg daily, vehicle 12%; for Histopathology score: single animal shown in Fig. S5, 4 dpi, vehicle treated animal score 4
Calu‐3 cells = assay: Cell viability / cytotoxicity in uninfected Calu‐3 cells; conditions: 72 h, Azatadine‐Dimaleate 25 µM, Remdesivir 1 µM, or combination (1 µM + 25 µM)
SARS‐CoV‐2 [10] = tested on: SARS‐CoV‐2; set-up: method as in PMID 32366720; conditions: Vero cells; cited from earlier work
[11] = Severe acute respiratory syndrome coronavirus 2, Vero cells, 5 µM, drug 24 h before infection, MOI = 0.1, 72 hpi
[12] = Calu‐3 cells, 5 µM, drug 24 h before infection, MOI = 0.1, 72 hpi
[13] = Severe acute respiratory syndrome coronavirus 2, Calu‐3 cells, 5 µM, drug 24 h before infection, MOI = 0.1, 72 hpi
[14] = Vero cells, 5 µM, drug 24 h before infection, MOI = 0.1, 72 hpi
[15] = Severe acute respiratory syndrome coronavirus 2, Calu‐3 cells, PHE MOI = 0.1, 72 hpi, 7 serial 1 in 2 dilutions from 20 µM, read-out: EC50 (CPE inhibition)

## CCN(CC)CCCC(C)Nc1ccnc2cc(Cl)ccc12 (centres unmarked) [Chloroquine]
SARS‐CoV‐2 [1]; [11]
  inhibition at 5 µM: 100%
SARS‐CoV‐2 [2]; [12]
  % of CPE inhibition: negligible antiviral activity

## CC(C)(C)[C@@H]1NC(=O)O[C@@H]2CCC[C@H]2OC/C=C/C(F)(F)c2nc3ccccc3nc2O[C@@H]2C[C@@H](C(=O)N[C@]3(C(=O)NS(=O)(=O)C4(C)CC4)C[C@H]3C(F)F)N(C2)C1=O [Glecaprevir]
SARS‐CoV‐2 [1]; [11]
  inhibition at 5 µM: 80 to 90%
SARS‐CoV‐2 [2]; [13]
  inhibition at 5 µM: 80 to 90%

## CC(C)n1nc(-c2ccc3oc(N)nc3c2)c2c(N)ncnc21 [Sapanisertib]
SARS‐CoV‐2 [1]; [11]
  inhibition at 5 µM: 80 to 90%
SARS‐CoV‐2 [2]; [13]
  inhibition at 5 µM: 80 to 90%

## CCOC(=O)N1CCC(=C2c3ccc(Cl)cc3CCc3cccnc32)CC1 [Loratadine]
SARS‐CoV‐2 [1]; [14]
  % of CPE inhibition: negligible activity
SARS‐CoV‐2 [2]; [12]
  % of CPE inhibition: negligible activity

## CN1CCCC(n2nc(Cc3ccc(Cl)cc3)c3ccccc3c2=O)CC1 (centres unmarked) [Azelastine]
SARS‐CoV‐2 [3]
  Viral load after nasal administration: significant viral load reduction

## CN1CCC(=C2c3ccccc3CCc3cccnc32)CC1 [Azatadine‐Dimaleate]
SARS‐CoV‐2 [1]; [11]
  inhibition at 5 µM: 88.5%
SARS‐CoV‐2 [2]; [13]
  inhibition at 5 µM: 97.6%
SARS‐CoV‐2 [4]; [15]
  EC50: 4000 nM
SARS‐CoV‐2 [5]; 5 µM
  Reduction in viral titres: approximately 100 fold
SARS‐CoV‐2 [5]; 25 µM
  Reduction in viral titres: ~ 5,000 fold and > 5,000 fold
SARS‐CoV‐2 [6]; 5 µM
  Reduction of viral NSP12 RNA levels relative to untreated controls: approximately 50%
SARS‐CoV‐2 [6]; 25 µM
  Suppression of viral NSP12 RNA levels: > 95%
SARS‐CoV‐2 [7]
  Improvement in potency in combination vs alone: twofold
  EC50: 4000 nM
SARS‐CoV‐2 [8]; 48 hpi
  Lowering of peak viral titers compared to controls: 1.4 log10
SARS‐CoV‐2 [8]; 96 hpi
  Lowering of peak viral titers compared to controls: 2.33 log10
SARS‐CoV‐2 [8]
  Reduction in viral titers compared to DMSO (significance): significantly reduced viral titers at 72 and 96 hpi
[9]
  Expression of innate immune response genes (IFNL1, IFNB, IFIT1, ISG15, IL6, CXCL8/IL8): significant reductions in all except CXCL8/IL8
SARS‐CoV‐2 LIV strain; day 4 post infection, morphometric analysis of SARS‐CoV‐2 N antigen
  Reduction of viral antigen expression in lung (immuno‐stained area): approximately 50%
SARS‐CoV‐2 LIV strain; day 4 post infection
  Mean weight loss: 4%
SARS‐CoV‐2 LIV strain; mouse, in vivo
  Infectious virus in lung by plaque assay vs vehicle: statistical significance reached
  Reduction of viral antigen expression in lung (immuno‐stained area): halved
SARS‐CoV‐2 LIV strain
  Histopathology score: 2
Calu‐3 cells
  Cytotoxicity (cell viability): no discernible toxicity; also recorded: No cytotoxic effects

## N#C[C@@]1(c2ccc3c(N)ncnn23)O[C@H](CO)[C@@H](O)[C@H]1O [GS‐441524]
SARS‐CoV‐2 [1]; Severe acute respiratory syndrome coronavirus 2, Vero
  inhibition at 5 µM: 80 to 90%
SARS‐CoV‐2 [2]; Severe acute respiratory syndrome coronavirus 2, Calu-3
  inhibition at 5 µM: 80 to 90%
SARS‐CoV‐2 [4]; Severe acute respiratory syndrome coronavirus 2, Calu-3, read-out: EC50 (CPE inhibition)
  EC50: 850 nM

## CCN(CCO)CCCC(C)Nc1ccnc2cc(Cl)ccc12 (centres unmarked) [hydroxychloroquine]
SARS‐CoV‐2 [1]; [11]
  inhibition at 5 µM: 100%
SARS‐CoV‐2 [2]; [12]
  % of CPE inhibition: negligible antiviral activity

## c1ccc2c(c1)Sc1ccccc1N2CC1CN2CCC1CC2 (centres unmarked) [Mequitazine]
SARS‐CoV‐2 [1]; [14]
  % of CPE inhibition: modest efficacy in Vero cells only
SARS‐CoV‐2 [10]
  IC50: 7280 nM

## CS(=O)(=O)O.CS(=O)(=O)O.Cc1cccc(/C=N/Nc2cc(N3CCOCC3)nc(OCCc3ccccn3)n2)c1 [Apilimod (mesylate)]
SARS‐CoV‐2 [1]; [14]
  % of CPE inhibition: 100%
SARS‐CoV‐2 [2]; [12]
  % of CPE inhibition: negligible antiviral activity

## CCC(CC)COC(=O)[C@H](C)N[P@](=O)(OC[C@H]1O[C@@](C#N)(c2ccc3c(N)ncnn23)[C@H](O)[C@@H]1O)Oc1ccccc1 [Remdesivir]
SARS‐CoV‐2 [4]; [15]
  EC50: 600 nM
SARS‐CoV‐2 [5]; 1 µM
  Inhibitory activity on viral titres: comparable inhibitory activity to 25 µM Azatadine‐Dimaleate
SARS‐CoV‐2 [6]; 1 µM
  Suppression of viral NSP12 RNA levels: > 95%
SARS‐CoV‐2 [7]
  Improvement in potency in combination vs alone: 2.4 fold
  EC50: 600 nM
SARS‐CoV‐2 [8]
  Reduction in viral titers compared to DMSO (significance): greatest reduction in viral titers
SARS‐CoV‐2 LIV strain; […]
  Mean weight loss: failed to prevent significant weight loss
SARS‐CoV‐2 LIV strain; mouse, in vivo
  Pulmonary viral RNA load (qRT‐PCR) vs vehicle: reduction achieved statistical significance
SARS‐CoV‐2 LIV strain
  Histopathology score: 3
Calu‐3 cells
  Cytotoxicity (cell viability): No cytotoxic effects
